From PubChem BioAssay AID330 (DTP/NCI, 2004)
Values joined by “and” are separate entries in the source; they are usually repeats but may differ in a detail not shown here. Identical values can stand only once. Inconclusive results and toxic doses are left out. How the source made its calls: active means survival T/C of 150% or more; inactive means T/C below 125% in these data. Peptide text beside a SMILES is read from it. * marks the point of attachment. Tos = Cc1ccc(S(=O)(=O)*)cc1; Bn = c1ccc(C*)cc1

System: P388 leukemia ip, CD2F1 mice, survival T/C
Assay: NCI In Vivo Anticancer Drug Screen. Data for tumor model P388 Leukemia (intraperitoneal) in CD2F1 (CDF1) mice
Details: endpoint: median survival time, higher = longer survival
How it was run: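 Mice carrying the transplanted tumor received test compound or vehicle. Survival was recorded in each group, and the value is the treated-group measurement divided by that of the vehicle-treated control group.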

[1] = dose: 12.5 mg/kg/injection, schedule: Q01DX009 (ip), vehicle: saline with Tween-80
[2] = dose: 25.0 mg/kg/injection, schedule: Q01DX009 (ip), vehicle: saline with Tween-80
[3] = dose: 50.0 mg/kg/injection, schedule: Q01DX009 (ip), vehicle: saline with Tween-80
[4] = dose: 60.0 mg/kg/injection, schedule: Q01DX005 (ip), vehicle: saline with Tween-80
[5] = dose: 120.0 mg/kg/injection, schedule: Q01DX005 (ip), vehicle: saline with Tween-80
[6] = dose: 240.0 mg/kg/injection, schedule: Q01DX005 (ip), vehicle: saline with Tween-80
[7] = dose: 50.0 mg/kg/injection, schedule: Q01DX005 (ip), vehicle: Klucel (hydroxypropylcellulose) (HPC)
[8] = dose: 100.0 mg/kg/injection, schedule: Q01DX005 (ip), vehicle: Klucel (hydroxypropylcellulose) (HPC)
[9] = dose: 200.0 mg/kg/injection, schedule: Q01DX005 (ip), vehicle: Klucel (hydroxypropylcellulose) (HPC)
[10] = dose: 6.25 mg/kg/injection, schedule: Q01DX005 (ip), vehicle: Klucel (hydroxypropylcellulose) (HPC)
[11] = dose: 12.5 mg/kg/injection, schedule: Q01DX005 (ip), vehicle: Klucel (hydroxypropylcellulose) (HPC)
[12] = dose: 25.0 mg/kg/injection, schedule: Q01DX005 (ip), vehicle: Klucel (hydroxypropylcellulose) (HPC)
[13] = dose: 50.0 mg/kg/injection, schedule: Q01DX009 (ip), vehicle: Klucel (hydroxypropylcellulose) (HPC)
[14] = dose: 100.0 mg/kg/injection, schedule: Q01DX009 (ip), vehicle: Klucel (hydroxypropylcellulose) (HPC)
[15] = dose: 200.0 mg/kg/injection, schedule: Q01DX009 (ip), vehicle: Klucel (hydroxypropylcellulose) (HPC)
[16] = dose: 50.0 mg/kg/injection, schedule: Q04DX003 (ip), vehicle: saline
[17] = dose: 100.0 mg/kg/injection, schedule: Q04DX003 (ip), vehicle: saline
[18] = dose: 50.0 mg/kg/injection, schedule: Q01DX005 (ip), vehicle: saline with Tween-80
[19] = dose: 100.0 mg/kg/injection, schedule: Q01DX005 (ip), vehicle: saline with Tween-80
[20] = dose: 200.0 mg/kg/injection, schedule: Q01DX005 (ip), vehicle: saline with Tween-80
[21] = dose: 60.0 mg/kg/injection, schedule: Q01DX005 (ip), vehicle: saline
[22] = dose: 120.0 mg/kg/injection, schedule: Q01DX005 (ip), vehicle: saline

Measured: T/C

CC(=O)OC1CCC2C3CCC4=C/C(=N/NC(=S)Nc5ccccc5)CCC4(C)C3CCC12C (centres undefined)
inactive: dose: 100.0 mg/kg/injection, schedule: Q01DX001 (ip), vehicle: saline 101 % of control | dose: 200.0 mg/kg/injection, schedule: Q01DX001 (ip), vehicle: saline 101 % of control | dose: 400.0 mg/kg/injection, schedule: Q01DX001 (ip), vehicle: saline 100 % of control

CCOP(=O)(O)SP(=O)(O)OCC.CCOP(=O)(O)SP(=O)(O)OCC.[Mn]
inactive: dose: 50.0 mg/kg/injection, schedule: Q04DX002 (ip), vehicle: saline 117 % of control | dose: 100.0 mg/kg/injection, schedule: Q04DX002 (ip), vehicle: saline 113 % of control and 117 % of control

COc1ccc(Oc2c(OC)cc(NCc3ccc(CN)cc3)c3ncccc23)cc1
inactive: [1] 110 % of control | [2] 109 % of control | [3] 109 % of control

COC1=C(C(C2=C(OC)CC(C)(C)CC2=O)c2ccc3c(c2)OCO3)C(=O)CC(C)(C)C1
inactive: [4] 102 % of control | [5] 111 % of control | [6] 101 % of control

C[C@@]12CCC[C@@](C)(C(=O)O)[C@H]1CC[C@]13C[C@@H](CO)[C@@H](CC[C@H]12)C3
inactive: [7] 99 % of control | [8] 90 % of control | [9] 87 % of control

C=C(Cl)C(=NC(C)(C)C)Nc1ccc(Cl)cc1
inactive: [10] 114 % of control | [11] 117 % of control | [12] 112 % of control | [7] 110 % of control | [8] 115 % of control

CCCN(CCC)CC(=O)NC1c2ccccc2Oc2ccccc21
inactive: [7] 101 % of control | [8] 101 % of control | [9] 90 % of control

CCCCNC(=O)C(C)O (centres undefined)
inactive: dose: 50.0 mg/kg/injection, schedule: Q01DX005 (ip), vehicle: saline 101 % of control | dose: 100.0 mg/kg/injection, schedule: Q01DX005 (ip), vehicle: saline 99 % of control | dose: 200.0 mg/kg/injection, schedule: Q01DX005 (ip), vehicle: saline 92 % of control

Nc1ncnc2c1ccn2COCCO
inactive: dose: 50.0 mg/kg/injection, schedule: Q01DX005 (ip), vehicle: distilled water + alcohol 100 % of control | dose: 100.0 mg/kg/injection, schedule: Q01DX005 (ip), vehicle: distilled water + alcohol 101 % of control | dose: 200.0 mg/kg/injection, schedule: Q01DX005 (ip), vehicle: distilled water + alcohol 99 % of control

O=C1CCCN1C1CC2c3ccccc3C1c1cccc[n+]12 (centres undefined)
inactive: dose: 5.0 mg/kg/injection, schedule: Q01DX009 (ip), vehicle: saline sonified 100 % of control | dose: 10.0 mg/kg/injection, schedule: Q01DX009 (ip), vehicle: saline sonified 100 % of control | dose: 20.0 mg/kg/injection, schedule: Q01DX009 (ip), vehicle: saline sonified 95 % of control

Clc1cc2c(nn1)Nc1ccccc1S2
inactive: [1] 97 % of control | [2] 96 % of control | [3] 99 % of control and 87 % of control | dose: 100.0 mg/kg/injection, schedule: Q01DX009 (ip), vehicle: saline with Tween-80 98 % of control | dose: 200.0 mg/kg/injection, schedule: Q01DX009 (ip), vehicle: saline with Tween-80 87 % of control

CCn1cnc(CC(NC(=O)C(F)(F)F)C(=O)O)c1 (centres undefined)
inactive: [13] 94 % of control | [14] 100 % of control | [15] 98 % of control

O=C(N/N=C/c1cc(Br)cc(Br)c1[O-])c1ccccc1.O=C(N/N=C/c1cc(Br)cc(Br)c1[O-])c1ccccc1.[Cu+2]
inactive: dose: 12.5 mg/kg/injection, schedule: Q01DX001 (ip), vehicle: saline with Tween-80 91 % of control | dose: 25.0 mg/kg/injection, schedule: Q01DX001 (ip), vehicle: saline with Tween-80 89 % of control | dose: 50.0 mg/kg/injection, schedule: Q01DX001 (ip), vehicle: saline with Tween-80 100 % of control

N#CC(C#N)(c1ccccc1)N1CCOCC1
inactive: dose: 25.0 mg/kg/injection, schedule: Q04DX003 (ip), vehicle: saline 109 % of control | [16] 100 % of control | dose: 100.0 mg/kg/injection, schedule: Q04DX003 (ip), vehicle: saline with Tween-80 100 % of control | [17] 104 % of control | dose: 200.0 mg/kg/injection, schedule: Q04DX003 (ip), vehicle: saline with Tween-80 96 % of control

CC(/C=N/Nc1ccccc1)=N\N=c1/scc(-c2ccc(Cl)cc2)n1-c1ccc(Cl)cc1
inactive: [18] 86 % of control | [19] 92 % of control | [20] 94 % of control

Cc1ccc(S(=O)(=O)NC(CSCc2ccccc2)C(=O)NC(Cc2ccc(O)cc2)C(=O)O)cc1 (centres undefined) (Tos-Cys(Bn)-Tyr-OH; configuration not given here)
inactive: [18] 103 % of control | [19] 99 % of control | [20] 99 % of control

O=C1CSC(c2ccccc2F)N1c1ncccn1 (centres undefined)
inactive: [11] 105 % of control | [12] 108 % of control | [7] 108 % of control (2×) and 119 % of control | [8] 104 % of control and 109 % of control and 119 % of control | [9] 100 % of control and 109 % of control

CCCCCCCCCCCN(CCCCCCCCCCC)CC(O)c1cc2c(c3ccccc13)CCCC2 (centres undefined)
inactive: [7] 98 % of control | [8] 100 % of control | [9] 96 % of control

C[Si]1(C)CC[Si](C)(C)OS(=O)(=O)O1
inactive: dose: 27.5 mg/kg/injection, schedule: Q01DX005 (ip), vehicle: Klucel (hydroxypropylcellulose) (HPC) 102 % of control | dose: 55.0 mg/kg/injection, schedule: Q01DX005 (ip), vehicle: Klucel (hydroxypropylcellulose) (HPC) 100 % of control

Nc1nc(-c2cccnc2)cc(-c2cc(-c3cccnc3)nc(N)n2)n1
inactive: [21] 96 % of control | [22] 100 % of control

CN(C)/C=N/NC(=O)c1ccccc1N
inactive: [4] 101 % of control | [5] 101 % of control | [6] 100 % of control

NNC(=O)c1ccc(-c2ccccc2)cc1
inactive: dose: 6.25 mg/kg/injection, schedule: Q01DX009 (ip), vehicle: Klucel (hydroxypropylcellulose) (HPC) 102 % of control | dose: 12.5 mg/kg/injection, schedule: Q01DX009 (ip), vehicle: Klucel (hydroxypropylcellulose) (HPC) 107 % of control | dose: 25.0 mg/kg/injection, schedule: Q01DX009 (ip), vehicle: Klucel (hydroxypropylcellulose) (HPC) 102 % of control | [13] 110 % of control | [14] 116 % of control

CN1C(C)(C)CC(O)CC1(C)C
inactive: [21] 102 % of control | [22] 102 % of control

N#Cc1c[nH]n2ccnc12
inactive: dose: 60.0 mg/kg/injection, schedule: Q01DX005 (ip), vehicle: Klucel (hydroxypropylcellulose) (HPC) 101 % of control | dose: 120.0 mg/kg/injection, schedule: Q01DX005 (ip), vehicle: Klucel (hydroxypropylcellulose) (HPC) 101 % of control | dose: 240.0 mg/kg/injection, schedule: Q01DX005 (ip), vehicle: Klucel (hydroxypropylcellulose) (HPC) 105 % of control

Cc1cc(C)c(Cn2c(=O)[nH][nH]c2=O)cc1Cn1c(=O)[nH][nH]c1=O
inactive: [13] 107 % of control | [14] 100 % of control | [15] 100 % of control

CSc1nc(N)c(C#N)c(SC)c1C#N
inactive: [16] 98 % of control | [17] 112 % of control | dose: 200.0 mg/kg/injection, schedule: Q04DX003 (ip), vehicle: saline 101 % of control

c1ccc2c(c1)[nH]c1c2c(N2CCOCC2)nn2cnnc12
inactive: [10] 101 % of control | [11] 100 % of control | [12] 89 % of control | [7] 99 % of control | [4] 95 % of control | [8] 100 % of control | [5] 93 % of control | [6] 98 % of control

N#CC(OC(=O)c1cccc(C(=O)OC(C#N)(C(F)(F)F)C(F)(F)F)c1Sc1ccccc1)(C(F)(F)F)C(F)(F)F
inactive: dose: 100.0 mg/kg/injection, schedule: Q04DX002 (ip), vehicle: Klucel (hydroxypropylcellulose) (HPC) 109 % of control | dose: 400.0 mg/kg/injection, schedule: Q04DX002 (ip), vehicle: Klucel (hydroxypropylcellulose) (HPC) 115 % of control
